Among the data in patent publication US20240101570A1 (AMGEN INC., priority 2020, published 2024) are IC50 values, retold here.

SMILES strings stand for the structures.

One assay relates to HCT116 MTAP null cells. The assay can be described thus: HCT116 MTAP null cell proliferation / viability (CellTiter-Glo, 6 days). The settings on record: HCT116-MTAP null, 144 h, HCT116 MTAP null cells, 6 days, CellTiter-Glo; read-out: HCT-116 MTAP null IC50. The class given is cell-based. As for the experimental part: (§1) HCT116 MTAP null and WT cells were seeded in 96-well tissue culture plates in RPMI 1640 media+10% fetal bovine serum. Plates were incubated overnight at 37° C. and 5% CO2. Cells were then treated with an 8- or 9-point serial dilution of compound, using a top concentration of 1, or 10 μM, 1:3 serial dilution steps and, a DMSO-only control. Cells were incubated in the presence of drug for 6 days. Effects on cell viability were measured with the CellTiter-Glo® Luminescent Cell Viability Assay (Promega) per manufacturer's recommendation. Assay plates were read on an EnVision™ Multilabel Reader using the Ultra-Sensitive luminescence module. IC50 values were calculated with GraphPad Prism v 5.01 using symmetrical sigmoidal dose-response least squares fit with Hill slope fixed to −1 and top constrain to 100% or GeneData Screener using a 4-parameter logistic model to fit dose response curves.
(§2) Alternatively, compounds could be assayed with a 384 well plate format:
(§3) Compounds were pre-spotted into 384 well plates with a 22-point serial dilution of compound, using a top concentration of 10 or 50 μM, 1:2 serial dilution steps and, a DMSO-only control. HCT116 MTAP null and WT cells were then seeded as above and after 6 days effects on cell viability were measured with the CellTiter-Glo® Luminescent Cell Viability Assay (Promega). Assay plates were read as above and IC50 values were calculated with GeneData Screener using a 4-parameter logistic model to fit dose response curves. The reported IC50 represents the value where the curve transits 50% of control.

For a further assay, the system named is HCT116 WT cells. The assay can be described thus: HCT116 WT cell proliferation / viability (CellTiter-Glo, 6 days). In kind it is cell-based. The settings on record: Homo sapiens, HCT-116, 144 h, HCT116 WT cells, 6 days, CellTiter-Glo; read-out: HCT-116 WT IC50. On the procedure: as §1, §2, §3

Turning to `C[C@H](c1ccc(C(F)(F)C(F)(F)F)cc1)N(C)C(=O)c1cc2c(cn1)nc(N)c1c2cnn1C` [Example 786, 4-amino-N,3-dimethyl-N-((1R)-1-(4-(pentafluoroethyl)phenyl)ethyl)-3H-pyrazolo[3,4-c][1,7]naphthyridine-8-carboxamide], the IC50 in the assay with HCT116 MTAP null cells is 0.126 µM; in the assay with HCT116 WT cells it was 7.33 µM.
In the same order, the values of `CN(Cc1ccc(C#N)cn1)C(=O)c1cc2c3c(c(N)nc2cc1F)COC3` [Example 479, 4-amino-N-((5-cyano-2-pyridinyl)methyl)-7-fluoro-N-methyl-1,3-dihydrofuro[3,4-c]quinoline-8-carboxamide] are 0.328 µM and 17.1 µM.
Take `C[C@H](c1ncccn1)N(Cc1ccc(C(F)(F)F)cn1)C(=O)c1ccc2nc(N)c3c(c2c1)OCC3` [Example 888, 4-amino-N-[(1R)-1-pyrimidin-2-ylethyl]-N-[[5-(trifluoromethyl)-2-pyridyl]methyl]-2,3-dihydrofuro[3,2-c]quinoline-8-carboxamide]: the figures for the IC50 with HCT116 MTAP null cells and with HCT116 WT cells were 0.021 µM and 0.231 µM, respectively.
In the case of `CCN(C(=O)c1ccc2nc(N)c3c(c2c1)COC3)C(C)(C)c1ccc(C(F)(F)F)cc1` [Example 759, 4-amino-N-ethyl-N-(2-(4-(trifluoromethyl)phenyl)-2-propanyl)-1,3-dihydrofuro[3,4-c]quinoline-8-carboxamide], the half-inhibitory concentration (IC50) in the assay on HCT116 MTAP null cells came out at 6.73 µM; in the assay on HCT116 WT cells, 11.8 µM.
On to `CO[C@H]1COCC[C@@H]1N(Cc1ccc(C(F)(F)F)cn1)C(=O)c1ccc2nc(N)c3c(c2c1)COC3C` (stereo partly drawn) [Example 903, 4-amino-N-((3R,4S)-3-methoxytetrahydro-2H-pyran-4-yl)-3-methyl-N-((5-(trifluoromethyl)pyridin-2-yl)methyl)-1,3-dihydrofuro[3,4-c]quinoline-8-carboxamide], for which the IC50 came to 0.058 µM with HCT116 MTAP null cells and 4 µM in the assay with HCT116 WT cells.
For `Cc1cc2nc(N)c3c(c2cc1C(=O)N(C)Cc1ccc(C(F)(F)F)cn1)COC3` [Example 503, 4-amino-N,7-dimethyl-N-((5-(trifluoromethyl)-2-pyridinyl)methyl)-1,3-dihydrofuro[3,4-c]quinoline-8-carboxamide], the IC50 in the assay with HCT116 MTAP null cells came out at 0.056 µM; with HCT116 WT cells, 2 µM.
Consider `CC1OCc2c1c(N)nc1ccc(C(=O)N(Cc3ccc(C#N)cn3)Cc3cnc(N)s3)cc21` (stereo not shown) [Example 914, 4-amino-N-((2-aminothiazol-5-yl)methyl)-N-((5-cyanopyridin-2-yl)methyl)-3-methyl-1,3-dihydrofuro[3,4-c]quinoline-8-carboxamide], for which the IC50 with HCT116 MTAP null cells was 0.2 µM.
Turning to `CC1OCc2c1c(N)nc1ccc(C(=O)N(CCC3CC(O)C3)Cc3ccc(C(F)(F)F)cn3)cc21` (stereo not shown) [Example 922, 4-amino-N-(2-(3-hydroxycyclobutyl)ethyl)-3-methyl-N-((5-(trifluoromethyl)pyridin-2-yl)methyl)-1,3-dihydrofuro[3,4-c]quinoline-8-carboxamide], the half-maximal inhibitory concentration (IC50) in the assay on HCT116 MTAP null cells worked out at 0.048 µM.
In the case of `CC1OCc2c1c(N)nc1ccc(C(=O)N(CC3=CCCOC3)Cc3ccc(C#N)cn3)cc21` (stereo not shown) [Example 912, 4-amino-N-((5-cyanopyridin-2-yl)methyl)-N-((5,6-dihydro-2H-pyran-3-yl)methyl)-3-methyl-1,3-dihydrofuro[3,4-c]quinoline-8-carboxamide], the IC50 in the assay on HCT116 MTAP null cells stood at 0.14 µM.
For the molecule `CC1OCc2c1c(N)nc1ccc(C(=O)N(Cc3ccc(C(F)(F)F)cn3)CC(O)C(F)(F)F)cc21` (stereo not shown) [Example 925, 4-amino-3-methyl-N-(3,3,3-trifluoro-2-hydroxypropyl)-N-((5-(trifluoromethyl)pyridin-2-yl)methyl)-1,3-dihydrofuro[3,4-c]quinoline-8-carboxamide], the half-maximal inhibitory concentration (IC50) with HCT116 MTAP null cells is 0.035 µM.
Same read-out and setting: in the case of `CC(CO)CN(Cc1ccc(C(F)(F)F)cn1)C(=O)c1ccc2nc(N)c3c(c2c1)COC3C` (stereo not shown) [Example 924, 4-amino-N-(3-hydroxy-2-methylpropyl)-3-methyl-N-((5-(trifluoromethyl)pyridin-2-yl)methyl)-1,3-dihydrofuro[3,4-c]quinoline-8-carboxamide] it was 0.043 µM; in that of `CC1OCc2c1c(N)nc1ccc(C(=O)N(Cc3ccc(C(F)(F)F)cn3)C(C)C3CCOCC3)cc21` (stereo not shown) [Example 891, 4-amino-3-methyl-N-(1-(tetrahydro-2H-pyran-4-yl)ethyl)-N-((5-(trifluoromethyl)pyridin-2-yl)methyl)-1,3-dihydrofuro[3,4-c]quinoline-8-carboxamide], 0.04 µM; in that of `CC(C#N)CN(Cc1ccc(C(F)(F)F)cn1)C(=O)c1ccc2nc(N)c3c(c2c1)COC3C` (stereo not shown) [Example 928, 4-amino-N-(2-cyanopropyl)-3-methyl-N-((5-(trifluoromethyl)pyridin-2-yl)methyl)-1,3-dihydrofuro[3,4-c]quinoline-8-carboxamide], 0.039 µM.
Still for that read-out and setting: in the case of `CC1OCc2c1c(N)nc1ccc(C(=O)N(Cc3ccc(C(F)(F)F)cn3)CC3CCOC3)cc21` (stereo not shown) [Example 927, 4-amino-3-methyl-N-((tetrahydrofuran-3-yl)methyl)-N-((5-(trifluoromethyl)pyridin-2-yl)methyl)-1,3-dihydrofuro[3,4-c]quinoline-8-carboxamide] it was 0.069 µM; in that of `CC(C)N(Cc1ccc(Br)nn1)C(=O)c1ccc2nc(N)c3c(c2c1)COC3` [Example 335, 4-amino-N-((6-bromo-3-pyridazinyl)methyl)-N-(2-propanyl)-1,3-dihydrofuro[3,4-c]quinoline-8-carboxamide], 0.361 µM; in that of `CC1OCc2c1c(N)nc1ccc(C(=O)N(Cc3ccc(C(F)(F)F)cn3)C[C@H]3CC[C@H](O)CC3)cc21` (stereo partly shown) [Example 893, 4-amino-N-(((1r,4r)-4-hydroxycyclohexyl)methyl)-3-methyl-N-((5-(trifluoromethyl)pyridin-2-yl)methyl)-1,3-dihydrofuro[3,4-c]quinoline-8-carboxamide], 0.041 µM.
The same measure, in the same setting: in the case of `CC1OCc2c1c(N)nc1ccc(C(=O)N(Cc3ccc(C(F)(F)F)cn3)C3CCCC(O)C3)cc21` (stereo not shown) [Example 921, 4-amino-N-(3-hydroxycyclohexyl)-3-methyl-N-((5-(trifluoromethyl)pyridin-2-yl)methyl)-1,3-dihydrofuro[3,4-c]quinoline-8-carboxamide] it was 0.093 µM; in that of `CC1OCc2c1c(N)nc1ccc(C(=O)N(Cc3ccc(C(F)(F)F)cn3)Cc3ncn(C)n3)cc21` (stereo not shown) [Example 926, 4-amino-3-methyl-N-((1-methyl-1H-1,2,4-triazol-3-yl)methyl)-N-((5-(trifluoromethyl)pyridin-2-yl)methyl)-1,3-dihydrofuro[3,4-c]quinoline-8-carboxamide], 0.03 µM; in that of `CC1(N(Cc2ccc(C(F)(F)F)cn2)C(=O)c2cc3c4c(c(N)nc3cn2)COC4)CC1` [Example 699, 4-amino-N-(1-methylcyclopropyl)-N-((5-(trifluoromethyl)-2-pyridinyl)methyl)-1,3-dihydrofuro[3,4-c][1,7]naphthyridine-8-carboxamide], 0.249 µM.
On to `CC1OCc2c1c(N)nc1ccc(C(=O)N(Cc3ccc(C#N)cn3)C[C@H]3CC[C@H](O)CC3)cc21` (stereo partly shown) [Example 894, 4-amino-N-((5-cyanopyridin-2-yl)methyl)-N-(((1r,4r)-4-hydroxycyclohexyl)methyl)-3-methyl-1,3-dihydrofuro[3,4-c]quinoline-8-carboxamide], for which the IC50 in the assay on HCT116 MTAP null cells was 0.18 µM.
`CC(C)CN(Cc1ccc(C(F)(F)F)cn1)C(=O)c1ccc2nc(N)c3c(c2c1)COC3C` (stereo not shown) [Example 919, 4-amino-N-isobutyl-3-methyl-N-((5-(trifluoromethyl)pyridin-2-yl)methyl)-1,3-dihydrofuro[3,4-c]quinoline-8-carboxamide]: the IC50 with HCT116 MTAP null cells turned out to be 0.025 µM.
The same measure, in the same setting: in the case of `CC(C)(C)CN(Cc1ccc(C(F)(F)F)cn1)C(=O)c1ccc2nc(N)c3c(c2c1)COC3` [Example 342, 4-amino-N-(2,2-dimethylpropyl)-N-((5-(trifluoromethyl)-2-pyridinyl)methyl)-1,3-dihydrofuro[3,4-c]quinoline-8-carboxamide] it was 1.31 µM.
Consider `CC(O)CN(Cc1ccc(C(F)(F)F)cn1)C(=O)c1ccc2nc(N)c3c(c2c1)COC3C` (stereo not shown) [Example 923, 4-amino-N-(2-hydroxypropyl)-3-methyl-N-((5-(trifluoromethyl)pyridin-2-yl)methyl)-1,3-dihydrofuro[3,4-c]quinoline-8-carboxamide], for which the IC50 in the assay with HCT116 MTAP null cells came to 0.056 µM.
Still for that read-out and setting: in the case of `CC1OCc2c1c(N)nc1ccc(C(=O)N(Cc3ccc(C(F)(F)F)cn3)C3CC3N)cc21` (stereo not shown) [Example 906, 4-amino-N-(2-aminocyclopropyl)-3-methyl-N-((5-(trifluoromethyl)pyridin-2-yl)methyl)-1,3-dihydrofuro[3,4-c]quinoline-8-carboxamide] it was 0.79 µM.
For `CC1OCc2c1c(N)nc1ccc(C(=O)N(Cc3ccc(C(F)(F)F)cn3)C(C)C(C)O)cc21` (stereo not shown) [Example 920, 4-amino-N-(3-hydroxybutan-2-yl)-3-methyl-N-((5-(trifluoromethyl)pyridin-2-yl)methyl)-1,3-dihydrofuro[3,4-c]quinoline-8-carboxamide], in the assay with HCT116 MTAP null cells, the IC50 was found to be 0.076 µM.
